Reference: US12023323B2, “Carbohydrate-binding small molecules with antiviral activity” (priority 2018, dated 2024)
Like-named read-outs stand apart in the source and are kept apart here.

What was measured:
ZIKV GFP RVPs [1] = test system: ZIKV GFP RVPs
N154Q mutant ZIKV RVPs = format: cell-based, Zika virus; conditions: Vero cells
[2] = Cellular toxicity, CellTiter-Glo, Vero cells; conditions: African green monkey
ZIKV GFP RVPs [3] = test: microbe, parasite or virus in culture; conditions: Zika virus, Vero, Vero cells
[4] = 1H NMR titration with octyloxy pyranoside α-Glc; format: binding; conditions: CD2Cl2, 298 K, 1:1 binding
[5] = 1H NMR titration with octyloxy pyranoside β-Man; format: binding; conditions: NMR titrations in CD2Cl2 at 298 K, 1:1 binding
[6] = 1H NMR titration with octyloxy pyranoside α-Man; format: binding; conditions: NMR titrations in CD2Cl2 at 298 K, 1:1 binding
[7] = NMR dilution experiments for dimerization; format: physicochemical; conditions: dilution experiments in CD2Cl2
[8] = Table 1, anti-ZIKV assay

Row | Compound | anti-ZIKV activity in words (ZIKV GFP RVPs [1]; Vero cells, ZIKV RVPs) | inhibition of N154Q mutant RVPs in words (N154Q mutant ZIKV RVPs) | CC50 at 72 h [2] | IC50 (ZIKV GFP RVPs [3]; Table 1, compounds 30 min before ZIKV RVPs, GFP+ cells 72 h postinfection) | IC50 relative to regioisomer (ZIKV GFP RVPs [1]; SCR023 vs SCR022, SCR017 vs SCR001) | therapeutic index (TC50/IC50) (ZIKV GFP RVPs [1]; Table 3, Vero cells) | IC50 (ZIKV GFP RVPs [1]; Table 3, Vero cells, ZIKV RVPs, average of at least two independent measurements) | Ka with α-Glc [4] | Ka (M^−1) with β-Man [5] | Ka (M^−1) with α-Man [6] | dimerization in words [7] | IC50 (ZIKV GFP RVPs [3]; Table 3, ZIKV RVPs, average of at least two independent measurements) | anti-ZIKV activity in words (ZIKV GFP RVPs [1]) | solubility (words printed in the IC50 column) [8]
1 | Cc1ccc(C(=O)Nc2ccc(S(=O)(=O)O)c3cc(S(=O)(=O)O)cc(S(=O)(=O)O)c23)cc1NC(=O)c1cccc(NC(=O)Nc2cccc(C(=O)Nc3cc(C(=O)Nc4ccc(S(=O)(=O)O)c5cc(S(=O)(=O)O)cc(S(=O)(=O)O)c45)ccc3C)c2)c1 [Suramin, reference compound] | dose dependent inhibition of ZIKV infection | inhibited | > 200 µM | 44 ± 4.19 µM |  |  |  |  |  |  |  |  |  | 
2 | Oc1cccc(CNCc2cc(CNCc3cccc(O)c3)cc(-c3cc(CNCc4cccc(O)c4)cc(CNCc4cccc(O)c4)c3)c2)c1 [SCR023, 3,3′,3″,3′″-((([1,1′-biphenyl]-3,3′,5,5′-tetrayltetrakis(methylene))tetrakis(azanediyl))tetrakis(methylene))tetraphenol] | weaker inhibition |  | 207 ± 79 µM |  | at least four times higher | 20 | 10.6 ± 5.9 µM | 310 M⁻¹ | 250 M⁻¹ | 150 M⁻¹ | Dimerization was observed | < 20 µM |  | 
3 | O=C(NCc1cc(CNC(=O)c2ccco2)cc(-c2cc(CNC(=O)c3ccco3)cc(CNC(=O)c3ccco3)c2)c1)c1ccco1 [SCR007, N,N′,N′″-([1,1′-biphenyl]-3,3′,5,5′-tetrayltetrakis(methylene))tetrakis(furan-2-carboxamide)] |  |  |  |  |  |  |  |  |  |  |  |  | not effective | not soluble
